Data as given in patent US8883213B2, “Ion exchange resin treated to control swelling” (Coating Place, Inc., priority 2005, dated 2014).
Where a name gives a salt, the structure may show the parent alone.

Tests used:
[1] = Release of both drugs from coated layer loaded compound B-phenylephrine HCl-IRP-69 drug-resin complex (Table VII); format: physicochemical; details: from coated layer loaded compound B-phenylephrine HCl-IRP-69 complex
Experimental: The present invention also provides compositions and methods of releasing two or more pharmaceutical compositions. For example, a phenylephrine HCl and IRP-69 drug-resin complex is prepared using any of the methods disclosed herein or as disclosed in the prior art. The phenylephrine HCl and IRP-69 drug-resin complex is directly loaded with a second drug (e.g., compound B) by spray applying a solution containing compound B to the phenylephrine HCl-IRP-69 drug-resin complex. This layer loaded complex (compound B-phenylephrine HCl-IRP-69 drug-resin complex) is then coated as previously described.

[2] = Release profile of phenylephrine hydrochloride from drug-resin complex with a 25% coating (Table V); format: physicochemical

CNC[C@H](O)c1cccc(O)c1 [Phenylephrine Hydrochloride]
Released ([1]; 0.5 hour): 48% | Released ([1]; 1.0 hour): 55% | Released ([1]; 1.5 hour): 76% | Released ([1]; 2.0 hour): 81% | Released ([1]; 4.0 hour): 92% | % Released ([2]; 0.5 hr): 25.5% | % Released ([2]; 1.0 hr): 30.5% | % Released ([2]; 3.0 hr): 61.0% | % Released ([2]; 6.0 hr): 93.0% | % Released ([2]; 12.0 hr): 97.0%
